Experimental data: US20070184519A1, “Peptides, polypeptides, and proteins of reduced immunogenicity and methods for their production” (priority 2003, published 2007)
Where two headings read alike, the source gives them in different places.

Key:
[1] = target: T1, DRB3*0101 (Homo sapiens, UniProt P01903+P79483); experiment: Class II peptide-binding assay DRB3*0101 (DR52a)
T1 construct: expressed in transfected cells; host or cells: transfected fibroblasts TR81.19

[2] = target: T2, DRB1*0301 (Homo sapiens, UniProt P01903+P01911, A100K/A102G/A103R/A169T/F55Y/I96L/K41T/L162R/M171V/P40S/Q125H/Q178H/Q39Y/R42S/S66N/T106N/T262R/W38E/Y61H); experiment: Class II peptide-binding assay DRB1*0301 (DR3)
T2 construct: Epstein-Barr virus (EBV) transformed homozygous cell lines were used as sources of human HLA Class II molecules; endogenous in cells; host or cells: MAT (EBV-transformed homozygous B cell line)

[3] = target: T3, DRB1*0802 (Homo sapiens, UniProt P01903+P01911, A100R/A103L/A169T/F76Y/H45Y/I96F/K41T/L162R/M171V/P40S/Q125H/Q178H/Q39Y/Q99D/R218S/R42G/S66Y/V115G/W38E); experiment: Class II peptide-binding assay DRB1*0802 (DR8w2)
T3 construct: Epstein-Barr virus (EBV) transformed homozygous cell lines were used as sources of human HLA Class II molecules; endogenous in cells; host or cells: OLL (EBV-transformed homozygous B cell line)

[4] = target: T4, DRB1*0401 (Homo sapiens, UniProt P01903+P01911, A100K/A169T/F76Y/I96L/K127E/L162R/M171V/N62H/P40V/Q125Y/R42H/S133A/S149N/S66Y/V115G/V209L/W38E); experiment: Class II peptide-binding assay DRB1*0401 (DR4w4)
T4 construct: Epstein-Barr virus (EBV) transformed homozygous cell lines were used as sources of human HLA Class II molecules; endogenous in cells; host or cells: PREISS (EBV-transformed homozygous B cell line)

[5] = target: T5, DRB1*0405 (Homo sapiens, UniProt P01903+P01911, A100R/A169T/D86S/F76Y/I96L/K127E/L162R/M171V/N62H/P40V/Q125Y/R42H/S133A/S149N/S66Y/V115G/V209L/W38E); experiment: Class II peptide-binding assay DRB1*0405 (DR4w15)
T5 construct: Epstein-Barr virus (EBV) transformed homozygous cell lines were used as sources of human HLA Class II molecules; endogenous in cells; host or cells: KT3 (EBV-transformed homozygous B cell line)

[6] = target: T6, DRB1*1101 (Homo sapiens, UniProt P01903+P01911, A100R/A169T/A87E/I96F/K41T/L162R/M171V/P40S/Q125H/Q178H/Q39Y/Q99D/R42S/S66Y/T262R/V115G/W38E); experiment: Class II peptide-binding assay DRB1*1101 (DR5w11)
T6 construct: Epstein-Barr virus (EBV) transformed homozygous cell lines were used as sources of human HLA Class II molecules; endogenous in cells; host or cells: SWEIG (EBV-transformed homozygous B cell line)

[7] = target: T7, DRB1*0701 (Homo sapiens, UniProt P01903+P01911, A100R/A102G/A103Q/D57E/D86V/E43K/F76Y/K127E/L162R/M171V/P40G/Q125H/Q99D/R33Q/R42Y/R54Q/S133A/S66F/T210M/V115G/Y107V/Y59L/Y89S); experiment: Class II peptide-binding assay DRB1*0701 (DR7)
T7 construct: Epstein-Barr virus (EBV) transformed homozygous cell lines were used as sources of human HLA Class II molecules; endogenous in cells; host or cells: PITOUT (EBV-transformed homozygous B cell line)

[8] = target: T8, DRB4*0101 (Homo sapiens, UniProt P01903+P13762, G164S); experiment: Class II peptide-binding assay DRB4*0101 (DRw53)
T8 construct: expressed in transfected cells; host or cells: transfected fibroblasts L257.6

[9] = target: T9, DRB1*0404 (Homo sapiens, UniProt P01903+P01911, A100R/A169T/F76Y/I96L/K127E/L162R/M171V/N62H/P40V/Q125Y/R42H/S133A/S149N/S66Y/V209L/W38E); experiment: Class II peptide-binding assay DRB1*0404 (DR4w14)
T9 construct: Epstein-Barr virus (EBV) transformed homozygous cell lines were used as sources of human HLA Class II molecules; endogenous in cells; host or cells: BIN40 (EBV-transformed homozygous B cell line)

[10] = target: T10, DRB1*0101 (Homo sapiens, UniProt P01903+P01911, A100R/D57E/F55L/F60I/F76Y/I96L/L162R/M171V/P40L/Q125E/R42F/V115G/Y59C); experiment: Class II peptide-binding assay DRB1*0101 (DR1)
T10 construct: Epstein-Barr virus (EBV) transformed homozygous cell lines were used as sources of human HLA Class II molecules; endogenous in cells; host or cells: LG2 (EBV-transformed homozygous B cell line)

[11] = target: T11, DRB1*1501 (Homo sapiens, UniProt P01903+P01911); experiment: Class II peptide-binding assay DRB1*1501 (DR2w2b)
T11 construct: expressed in transfected cells; host or cells: transfected fibroblasts L466.1

[12] = target: T12, DRB5*0101 (Homo sapiens, UniProt P01903+Q30154); experiment: Class II peptide-binding assay DRB5*0101 (DR2w2a)
T12 construct: Epstein-Barr virus (EBV) transformed homozygous cell lines were used as sources of human HLA Class II molecules; endogenous in cells; host or cells: GM3107 (EBV-transformed homozygous B cell line)

[13] = target: DRB1*0901 (Homo sapiens, UniProt P01903+P01911, A100R/A103E/D57H/D86V/F55Y/F60I/F76Y/I96F/K127E/L162R/M171V/P40D/Q125H/Q99R/R33Q/R42F/S133A/S66N/T210M/V115G/W38K/Y107V/Y59G/Y89S); experiment: Class II peptide-binding assay DRB1*0901 (DR9)
[14] = target: T13, DRB1*1302 (Homo sapiens, UniProt P01903+P01911, A100E/A169T/K41T/L162R/M171V/P40S/Q125H/Q178H/Q39Y/Q99D/R42S/S66N/T262R/V115G/W38E/Y61H); experiment: Class II peptide-binding assay DRB1*1302 (DR6w19)
T13 construct: Epstein-Barr virus (EBV) transformed homozygous cell lines were used as sources of human HLA Class II molecules; endogenous in cells; host or cells: HO301 / H0301 (EBV-transformed homozygous B cell line)

[15] = cited from earlier work
[16] = scientific publications, package insert, FDA documents, patent applications

T2 sequence (P01903 26-254, other chains not shown): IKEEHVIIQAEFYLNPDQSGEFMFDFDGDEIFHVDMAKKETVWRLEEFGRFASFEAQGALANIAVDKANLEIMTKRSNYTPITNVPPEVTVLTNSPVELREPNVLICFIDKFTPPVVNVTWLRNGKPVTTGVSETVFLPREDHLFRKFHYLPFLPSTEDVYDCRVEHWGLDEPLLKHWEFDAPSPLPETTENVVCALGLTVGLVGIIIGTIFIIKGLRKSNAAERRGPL
T13 sequence (P01903 26-254, other chains not shown): as above
T6 sequence (P01903 26-254, other chains not shown): as above

## CC(C)C[C@H](NC(=O)[C@@H]1CCCN1)C(=O)NCC(=O)N[C@@H](Cc1ccccc1)C(=O)N[C@@H](Cc1ccccc1)C(=O)N1CCC[C@H]1C(=O)N[C@@H](CC(=O)O)C(=O)N[C@@H](Cc1c[nH]cn1)C(=O)N[C@@H](CCC(N)=O)C(=O)N[C@@H](CC(C)C)C(=O)N[C@@H](CC(=O)O)C(=O)N1CCC[C@H]1C(=O)N[C@@H](C)C(=O)N[C@@H](Cc1ccccc1)C(=O)NCC(=O)N[C@@H](C)C(=O)N[C@@H](CC(N)=O)C(=O)N[C@@H](CO)C(=O)N[C@@H](CC(N)=O)C(=O)N[C@@H](CC(N)=O)C(=O)N1CCC[C@H]1C(=O)N[C@@H](CC(=O)O)C(=O)N[C@@H](Cc1c[nH]c2ccccc12)C(=O)N[C@@H](CC(=O)O)C(=O)N[C@@H](Cc1ccccc1)C(=O)N[C@@H](CC(N)=O)C(=O)N1CCC[C@H]1C(=O)O
[1]
  IC50: 0.311 µM
[2]
  IC50: > 20 µM
[3]
  IC50: > 20 µM
[4]
  IC50: > 20 µM
[5]
  IC50: 0.031 µM
[6]
  IC50: > 20 µM
[7]
  IC50: > 20 µM
[8]
  IC50: 3.14 µM
[9]
  IC50: > 20 µM
[10]
  IC50: > 20 µM
[11]
  IC50: 1.98 µM
[12]
  IC50: > 20 µM
[13]
  IC50: 15.7 µM
[14]
  IC50: > 10 µM

## Calcitonin: 32 amino acid polypeptide derived from salmon origin
[15]; human, in vivo
  Immunogenicity (documented): YES

## Insulin: human insulin, alpha and beta chains
[15]; [16]
  Immunogenicity (documented): YES

## hGH: 191 amino acid protein produced by recombinant DNA technology
[15]; human, in vivo
  patients developing antibodies: Thirty
[15]; [16]
  Immunogenicity (documented): YES

B1: IFNβ: interferon beta (protein)
chain: MSYNLLGFLQRSSNCQCQKLLWQLNGRLEYCLKDRRNFDIPEEIKQLQQFQKEDAAVTIYEMLQNIFAIFRQDSSSTGWNETIVENLLANVYHQRNHLKTVLEEKLEKEDFTRGKRMSSLHLKRYYGRILHYLKAKEDSHCAWTIVRVEILRNFYVINRLTGYLRN
[15]; [16]
  Immunogenicity (documented): YES
